Results reported in the supplement of paper PMC8882468.

How the values were obtained:
Test in all cases: CTG-3D luminescence at 96 h relative to day-0 seeding control (ratio to day 0); higher = more growth / less cytotoxicity; PDxO 3D drug screen, 96 h, CTG-3D normalised to day-0 seeding control.
[1] = test system: HCI-011.E2 (organoid from an ER-positive breast cancer xenograft)
[2] = test system: MDA-MB-231
[3] = test system: HCI-008 (organoid from a HER2-enriched breast cancer xenograft)
[4] = test system: HCI-015 (organoid from a triple-negative breast cancer xenograft)
[5] = test system: HCI-017.E2 (organoid from an ER-positive breast cancer xenograft)
[6] = test system: HCI-027 (organoid from a triple-negative breast cancer xenograft)
[7] = test system: HCI-005.E2 (organoid from a breast cancer xenograft with a HER2-positive history)

Cc1cc(Nc2ncnc3ccc(NC4=NC(C)(C)CO4)cc23)ccc1Oc1ccn2ncnc2c1 [tucatinib]
CTG-3D luminescence at 96 h
Conditions | 12.5 pM | 0.00025 µM | 0.005 µM | 0.1 µM | 1 µM | 10 µM | 100 µM | 625 fM
[1] | 1.7 | 1.59 | 1.4 | 1.87 | 1.52 | 1.91 | 0.142 | 1.5
[2] | 4.57 | 4.49 | 4.6 | 4.56 | 4.67 | 4.64 | 0.058 | 4.58
[5] | 1.74 | 1.98 | 2.09 | 1.95 | 1.79 | 1.413 | 0.0205 | 1.96
[7] | 1.56 | 1.61 | 2.08 | 2 | 1.47 | 1.53 | 0.00612 | 2.09

CTG-3D luminescence at 96 h
Conditions | 12.5 pM | 0.00025 µM | 0.005 µM | 0.1 µM | 1 µM | 10 µM | 100 µM | 625 fM
[1], days in culture: 74 | 2.22 | 2.98 | 1.74 | 2.19 | 2.18 | 3 | 0.399 | 2.84
[3], days in culture: 228 | 1.79 | 1.66 | 1.49 | 1.85 | 1.83 | 1.5 | 0.0233 | 1.8641
[3], days in culture: 244 | 1.41 | 1.81 | 2.11 | 1.99 | 1.83 | 1.84 | 0.0167 | 2.29
[4], days in culture: 172 | 2.53 | 1.9 | 2.05 | 1.54 | 1.91 | 1.53 | 0.0569 | 2.67
[4], days in culture: 191 | 1.69 | 1.49 | 1.75 | 0.921 | 1.58 | 0.759 | 0.0182 | 1.67
[4], days in culture: 218 | 2.15 | 1.83 | 1.97 | 1.85 | 1.5 | 1.64 | 0.0854 | 1.8
[5], days in culture: 85 | 2.39 | 3.33 | 2.72 | 2.78 | 3.27 | 1.71 | 0.109 | 2.31
[6], days in culture: 176 | 2.4 | 1.31 | 2.9 | 2.1 | 1.61 | 0.414 | 0.0112 | 1.82
[6], days in culture: 194 | 1.81 | 1.55 | 1.49 | 1.66 | 2.06 | 1.41 | 0.0114 | 1.7
[6], days in culture: 201 | 2.47 | 2.58 | 2.3 | 2.28 | 2.1 | 0.716 | 0.01 | 2.42
